Assay results: US8716231B2, “Use of benzo-fused heterocycle sulfamide derivatives for the treatment of pain” (Janssen Pharmaceutica NV, priority 2005, dated 2014)
Several values for one entry are separate records, joined by “and”; a condition that tells them apart may be missing. Equal values may be shown once.

Key:
[1] = system: acetic acid-induced abdominal stretching; assay: Acetic Acid-induced Abdominal Constriction Model of Visceral Pain; format: in vivo, CD-1 mice; conditions: 560 mg/kg oral; for number of abdominal stretches: not statistically significant (vehicle 13 to 16.2)
Description: The purpose of this assay was to determine whether Compound #8 reverses hypersensitivity in visceral, inflammatory and neuropathic models of pain.
Test compound and controls were dissolved in the appropriate volume of 0.5% HPMC or 10% solutol in 0.5% hydoxypropyl methylcellulose (HPMC). HPMC served as the vehicle for preparation of gabapentin solutions used as the positive control. Solutions were prepared to provide the final dose in a volume of 10 mL/kg orally (p.o.) for mice. Male CD-1 mice from Charles Rivers Laboratories (Portage, Me.), weighing between 25 and 30 grams at the time of study, were used for the acetic acid-induced abdominal stretching studies.
Mice in the acetic acid-induced abdominal stretching study were allowed 1 hr to acclimate to the testing room before the start of the study. Animals were housed in micro-isolator cages in groups of four rats per cage or 5 mice per cage with corncob bedding and free access to food and water. The environment was maintained at a constant temperature of 21° C., with a 12-hour light/dark cycle.
Animals used in the acetic acid-induced abdominal stretching test were maintained with original cage mates throughout the study period (four rats per cage, 5 mice per cage; cages were Nalgene® with corn cob bedding). Animals from several cages were randomly assigned across treatment groups; that is, mice in a given cage were pseudo-randomly assigned to different treatment groups. In all tests, the investigator performing the behavioral analysis was blinded to the treatment administered to any individual animal.
Mice were then given an i.p injection of 0.5 mL (2×0.25 mL/abdominal quadrant) of 0.6% acetic acid following 1 hr, 2 hrs, 3 hrs or 4 hours treatment with vehicle, compound or positive control. Five minutes after i.p acetic acid injection, 5 animals were placed into separate bell jars containing a small amount of bedding chips, and the number of abdominal stretches per animal was recorded for 5 minutes. This was repeated for each group (N=10 mice/group). […]

[2] = system: tactile allodynia in L5 SNL rats (von Frey withdrawal threshold); assay: Lumbar 5 (L5) Spinal Nerve Ligation (Chung) Model of Neuropathic Pain, Studies A-D; format: in vivo, Sprague-Dawley rats; conditions: for withdrawal thresholds: 2 hrs, 4 hrs and 6 hrs after oral administration
Source text: The rat Chung model is an assay used in determining whether a compound is useful for the treatment of neuropathic pain (Kim and Chung, 1994; Chaplan et al., 1994). In this assay, injury to the sciatic nerve by loose ligation with chromic gut suture, tight ligation of the L5 spinal nerve with silk suture or partial tight ligation with silk suture each produces hypersensitivity to many stimulus modalities (e.g., touch, pressure, temperature) that lasts for weeks or months. Hypersensitivity produced by such injuries is reminiscent of allodynia and hyperalgesia observed in clinical conditions of neuropathic pain caused by mechanical nerve injury, diabetes and chemotherapy. This assay is predictive of analgesic, antiallodynic and/or antihyperalgesic effect of test compounds.
Test compound and controls were dissolved in the appropriate volume of 0.5% HPMC or 10% solutol in 0.5% hydoxypropyl methylcellulose (HPMC). HPMC served as the vehicle for preparation of gabapentin solutions used as the positive control. Solutions were prepared to provide the final dose in a volume of 2.5 mL/kg or 5 mL/kg p.o. for rats. Male, Sprague-Dawley rats from Harlan Industries (Indianapolis, Ind.), weighing 150 to 250 grams at the time of surgery, were used for L5 SNL studies.
Rats in the SNL studies were housed and tested in the same room. Animals were housed in micro-isolator cages in groups of four rats per cage or 5 mice per cage with corncob bedding and free access to food and water. The environment was maintained at a constant temperature of 21° C., with a 12-hour light/dark cycle. Rats undergoing L5 SNL surgery were placed into individual housing cages with alpha dry bedding and had access to enrichment food, food pellets and water ad libitum. Animals were allowed four to six weeks recovery from surgery prior to testing and were not tested beyond eight weeks post-surgery. For L5 SNL testing, only those animals that responded to less than 4 gr force were included in further testing and analysis, being randomized into treatment groups on the day of study. In all tests, the investigator performing the behavioral analysis was blinded to the treatment administered to any individual animal.
For L5 SNL surgery, rats were induced and maintained on isoflurane inhalation anesthesia. A 2-cm skin incision was made just left of midline over the dorsal aspect of the L4-S2 spinal segments, followed by separation of the paraspinal muscles from spinous processes. The transverse process of L6 was then carefully removed and the L5 spinal nerve was identified. The left L5 spinal nerve was then ligated tightly with 6-0 silk thread, the muscle was sutured with 4-0 vicryl, and the skin was closed with wound clips.
Behavioral testing was performed on L5SNL rats at a time between 3-6 weeks post-ligation. […] Tactile allodynia was quantified at 30 min, 1 hr, 2 hrs, 4 hrs, 6 hrs, 8 hrs and/or 24 hr post-dosing by recording the force at which the paw ipsilateral to the nerve ligation was withdrawn from the application of a series of calibrated von Frey filaments (0.4, 0.7, 1.2, 2.0, 3.6, 5.5, 8.5 and 15.1 g; Stoelting; Wood Dale, Ill.). Beginning at an intermediate stiffness (2.0 g), filaments were applied to the mid-plantar hind paw for approximately 5 seconds. A brisk paw withdrawal led to the presentation of the next lighter stimulus and the lack of a withdrawal response led to the presentation of the next stronger stimulus to determine the response threshold. A total of four responses after the first threshold detection were collected. The 50% withdrawal thresholds were interpolated by the method of Dixon (as described in Meert T F and Vermeirsch, H A, Pharmacol. Biochem. Behav.; 2005, 80(2), pp 309-326) and when response thresholds fell above or below the range of detection, respective values of 15.0 or 0.25 g were assigned. […]

[3] = system: mechanical (tactile) allodynia after L5 nerve ligation; assay: Rat Chung Model of Neuropathic Pain (Example 14); format: in vivo, Sprague Dawley rats
Source text: The rat Chung model is an assay used in determining whether a compound is useful for the treatment of neuropathic pain (Kim and Chung, 1994; Chaplan et al., 1994).
In this study, male Sprague Dawley rats (145-165 g; Harlan) were anesthetized and the L5 nerve was isolated and ligated with silk suture material resulting in mechanical allodynia. […] The results were normalized and results are presented as % MPE ([…]) of the drug.

`NS(=O)(=O)NC[C@H]1COc2cc(Cl)ccc2O1` [Compound #8, (2S)-(−)-N-(6-Chloro-2,3-dihydro-benzo[1,4]dioxin-2-ylmethyl)-sulfamide] was tested, and the “effect on acetic acid-induced stretching” value ([1]; compared with vehicle- or gabapentin-treated mice) was “did not significantly modify acetic acid-induced stretching”, the “% reversal (withdrawal threshold)” value ([2]; Study A, 120 mg/kg oral, 1 hr) was 42.2±13.8% and the “% reversal (withdrawal threshold)” value ([2]; Study A, 120 mg/kg oral, 4 hrs) was 45.4±12.2%. For the same compound, the “% change (withdrawal threshold)” value ([2]; Study A, 240 mg/kg, 4 hr) was 65.6±21.1%, the withdrawal thresholds ([2]; Study A) was “significantly increased withdrawal thresholds” and the “reversal in tactile hypersensitivity, peak effect” value ([2]; Study B, first administration (Day 1), 480 mg/kg, 4 hrs after dosing, three weeks after surgery) was 64.3±9.9%. The “reversal in tactile hypersensitivity” value ([2]; Study B, first administration, other treatment groups (60, 120, 240 mg/kg)) was “No significant differences were observed”, the “reversal of tactile hypersensitivity” value ([2]; Study B, third and seventh day of daily dosing, 60-480 mg/kg) was “none of the treatment groups exhibited a significant reversal of tactile hypersensitivity” and the “effect on mechanical allodynia” value ([2]; Study C, 100 mg/kg, 300 mg/kg or 560 mg/kg, p.o., 4 weeks after surgery) was “did not show a statistically significant effect up to 6 hrs”. The “decrease in mechanical allodynia” value ([2]; Study D, 560 mg/kg p.o. in 10% solutol in HPMC, four weeks after surgery) was “showed a decrease in mechanical allodynia at 4 hrs and 6 hrs post dosing, but with a p=0.054”, the “time at which efficacy peaked” value ([3]; 120 mg/kg p.o.) was 1 h and the “time at which efficacy was observed” value ([3]; 120 mg/kg p.o.) was 30 min. The “time post-dosing at which efficacy was sustained” value ([3]; 120 mg/kg p.o.) was 4 h, the “time at which efficacy peaked” value ([3]; 240 mg/kg, po) was 2 to 4 h and the “time at which efficacy was observed” value ([3]; 240 mg/kg, po) was 30 min. For the same compound, the “time post-dosing at which efficacy was sustained” value ([3]; 240 mg/kg, po) was 24 h.

`NCC1(CC(=O)O)CCCCC1` [gabapentin, reference compound] was tested, and the “number of abdominal stretches” value ([1]; 2 hr after administration) was 11.00±1.5 stretches, the “number of abdominal stretches” value ([1]; 3 hr after administration) was 10.0±1.6 stretches and the “% reversal (withdrawal threshold)” value ([2]; Study A, 480 mg/kg, 2 hrs post-dosing, six weeks after surgery) was 73.2±14.7%. The “% reversal (withdrawal threshold)” value ([2]; Study A, 480 mg/kg, 4 hrs post-dosing, six weeks after surgery, 480 mg/kg) was 73.7±16.6% and 73.4±15.2%, the withdrawal thresholds ([2]; Study A) was “significantly increased withdrawal thresholds” and the “% reversal of mechanical allodynia relative to baseline” value ([2]; Study C, 560 mg/kg, 2 hrs post dosing) was 58.7%. The “% reversal of mechanical allodynia relative to baseline” value ([2]; Study C, 560 mg/kg, 4 hrs post dosing) was 86.4%, the “decrease in mechanical allodynia relative to baseline” value ([2]; Study C, 560 mg/kg, 6 hrs post dosing) was “not at 6 hrs post dosing” and the “effect of positive control on mechanical allodynia” value ([3]; 480 mg/kg p.o.) was “equivalent to the activity measured for Compound #8 at 240 mg/kg dosing”.
